The values that follow come from publication PMC7999199, “Novel Cationic Meso-Arylporphyrins and Their Antiviral Activity against HSV-1” (Pharmaceuticals, 2021).

The series is described as follows: Micelle size of Pluronic F-127 formulations by dynamic light scattering. It is filed as physicochemical. The following applies: Pluronic F-127 micelles, concentration 3·10^−6 M. How it is done:
The size of obtained micelles for the compounds 3a,b was determined by the dynamic light scattering (DLS) method. The micelle size for compounds 3a,b was 17.53 nm and 14.69 nm, respectively, at concentrations of 3·10^−6 M (Figure 4a,b). It has previously been reported that a similar micelle size increased the efficiency and circulation of the encapsulated drug in the blood due to the small scale, which avoided the capture of nanoparticles by the reticular endothelial system.
NMR (^1H and ^13C) spectra of the test solutions in CDCl3 or (CD3OD) were recorded on a Bruker MSL-300 pulse Fourier transform spectrometer (Bruker, Billerica, MA, USA) at frequencies of 300.3 and 75.49 MHz, respectively, with internal deuterium stabilization. Tetramethylsilane was used as an external standard. IR spectra (4000–500 cm^–1) were recorded on Infralyum FT 02 Fourier spectrometer (Lumex Instruments Research and Production Company, Moscow, Russia) with a resolution of 1 cm^−1. Samples were prepared as KBr tablets. Dynamic light scattering was measured using Malvern Zetasizer Nano ZS (Malvern, United Kingdom). […] Mass spectra were recorded using an 1100 LCMSD liquid chromatograph (Agilent Technologies, Santa Clara, CA, USA) equipped with a mass spectrometric chemical ionization detector at atmospheric pressure (HIAD, APCI, ESI) and with a UV spectrophotometric detector (DAD). […]

Turning to `O=C(CC[n+]1ccccc1)Oc1ccc(-c2c3nc(c(-c4ccc(OC(=O)CC[n+]5ccccc5)cc4)c4ccc([nH]4)c(-c4ccc(OC(=O)CC[n+]5ccccc5)cc4)c4nc(c(-c5ccc(OC(=O)CC[n+]6ccccc6)cc5)c5ccc2[nH]5)C=C4)C=C3)cc1` [3a], the “micelle size (DLS)” value stood at 17.53 nm.
